According to patent publication US12077483B2, “Modified amine lipids” (Intellia Therapeutics, Inc., priority 2018, dated 2024):

Experiments:
[1] = pKa of amine lipid by TNS fluorescence; format: physicochemical; settings: probe TNS (6-(p-toluidino)-2-naphthalenesulfonic acid sodium salt), unformulated amine lipid in ethanol, sodium phosphate buffers -9.0
Protocol: The pKa of each amine lipid was determined according to the method in Jayaraman, et al. (Angewandte Chemie, 2012) with the following adaptations. The pKa was determined for unformulated amine lipid in ethanol. Lipid stock solutions (2.94 mM) were diluted into Sodium Phosphate Buffers (0.1 M, Boston Bioproducts) of different pH (pH-range: 4.5-9.0) yielding a final lipid concentration of approx. 100 μM. The test samples were supplemented with TNS {6-(p-Toluidino)-2-naphthalenesulfonic acid sodium salt}, incubated and the fluorescence intensity was measured using excitation and emission wavelengths of 321 nm and 448 nm, respectively. The recorded data were normalized and the respective pKa values were derived from sigmoidal fitting.

[2] = LNP average particle size and polydispersity by dynamic light scattering; format: physicochemical; settings: LNP with the compound as amine lipid
Description: The LNPs have a size of about 1 to about 1,000 nm, about 10 to about 500 nm, about 20 to about 500 nm, in a sub-embodiment about 50 to about 400 nm, in a sub-embodiment about 50 to about 300 nm, in a sub-embodiment about 50 to about 200 nm, and in a sub-embodiment about 50 to about 150 nm, and in another sub-embodiment about 60 to about 120 nm. Preferably, the LNPs have a size from about 60 nm to about 100 nm. The average sizes (diameters) of the fully formed LNP, may be measured by dynamic light scattering on a Malvern Zetasizer. The LNP sample is diluted in phosphate buffered saline (PBS) so that the count rate is approximately 200-400 kcps. The data is presented as a weighted average of the intensity measure.
In some embodiments, the LNPs have a size of about 75 to about 120 nm. In some embodiments, the LNPs have a size of about 75 to about 100 nm. Unless indicated otherwise, all sizes referred to herein are the average sizes (diameters) of the fully formed nanoparticles, as measured by dynamic light scattering on a Malvern Zetasizer. The nanoparticle sample is diluted in phosphate buffered saline (PBS) so that the count rate is approximately 200-400 kcps. The data is presented as a weighted-average of the intensity measure (Z-average diameter).
Dynamic Light Scattering (“DLS”) is used to characterize the polydispersity index (“pdi”) and size of the LNPs of the present disclosure. DLS measures the scattering of light that results from subjecting a sample to a light source. PDI, as determined from DLS measurements, represents the distribution of particle size (around the mean particle size) in a population, with a perfectly uniform population having a PDI of zero. Electropheretic light scattering is used to characterize the surface charge of the LNP at a specified pH. The surface charge, or the zeta potential, is a measure of the magnitude of electrostatic repulsion/attraction between particles in the LNP suspension. Asymmetric-Flow Field Flow Fractionation—Multi-Angle Light Scattering (AF4-MALS) is used to separate particles in the composition by hydrodynamic radius and then measure the molecular weights, hydrodynamic radii and root mean square radii of the fractionated particles. […] Nanoparticle tracking analysis (NTA, Malvern Nanosight) can be used to determine particle size distribution as well as particle concentration. LNP samples are diluted appropriately and injected onto a microscope slide. A camera records the scattered light as the particles are slowly infused through field of view. After the movie is captured, the Nanoparticle Tracking Analysis processes the movie by tracking pixels and calculating a diffusion coefficient. This diffusion coefficient can be translated into the hydrodynamic radius of the particle. The instrument also counts the number of individual particles counted in the analysis to give particle concentration.
LNP compositions are analyzed for average particle size, polydispersity index (pdi), total RNA content, encapsulation efficiency of RNA, and zeta potential. LNP compositions may be further characterized by lipid analysis, AF4-MALS, NTA, and/or cryo-EM. Average particle size and polydispersity are measured by dynamic light scattering (DLS) using a Malvern Zetasizer DLS instrument. LNP samples were diluted with PBS buffer prior to being measured by DLS. Z-average diameter which is an intensity-based measurement of average particle size was reported along with number average diameter and pdi. A Malvern Zetasizer instrument is also used to measure the zeta potential of the LNP. Samples are diluted 1:17 (50 μL into 800 μL) in 0.1×PBS, pH 7.4 prior to measurement.

[3] = RNA encapsulation efficiency of LNP (Ribogreen fluorescence assay); format: physicochemical; settings: LNP with the compound as amine lipid
Protocol: A fluorescence-based assay (Ribogreen®, ThermoFisher Scientific) is used to determine total RNA concentration and free RNA. Encapsulation efficiency is calculated as (Total RNA—Free RNA)/Total RNA. LNP samples are diluted appropriately with 1× TE buffer containing 0.2% Triton-X 100 to determine total RNA or 1× TE buffer to determine free RNA. Standard curves are prepared by utilizing the starting RNA solution used to make the compositions and diluted in 1× TE buffer+/−0.2% Triton-X 100. Diluted RiboGreen® dye (according to the manufacturer's instructions) is then added to each of the standards and samples and allowed to incubate for approximately 10 minutes at room temperature, in the absence of light. A SpectraMax M5 Microplate Reader (Molecular Devices) is used to read the samples with excitation, auto cutoff and emission wavelengths set to 488 nm, 515 nm, and 525 nm respectively. Total RNA and free RNA are determined from the appropriate standard curves.
Encapsulation efficiency is calculated as (Total RNA−Free RNA)/Total RNA. The same procedure may be used for determining the encapsulation efficiency of a DNA-based cargo component. For single-strand DNA, Oligreen Dye may be used and for double-strand DNA, Picogreen Dye.

mouse TTR = experiment: Serum TTR ELISA in mice after LNP delivery; format: in vivo; settings: mouse serum, relative to TSS control of same experiment
Protocol: For studies measuring in vivo editing in liver, CD-1 female mice were dosed at 0.1 mpk unless otherwise noted. Animals were euthanized at 6 or 7 days by exsanguinationvia cardiac puncture under isoflourane anesthesia. Liver tissue was collected from each animal for DNA extraction and analysis. Blood was collected into serum separator tubes or into tubes containing buffered sodium citrate for plasma as described herein. Cohorts of mice were measured for editing by Next-Generation Sequencing (NGS).
Blood was collected and the serum was isolated as indicated. The total mouse TTR serum levels were determined using a Mouse Prealbumin (Transthyretin) ELISA Kit (Aviva Systems Biology, Cat. OKIA00111). Briefly, sera were serial diluted with kit sample diluent, e.g. to a final dilution of 10,000-fold and/or 2,500-fold. The diluted sample was then added to the ELISA plates and the assay was then carried out according to directions. Serum TTR data from treatment groups are expressed as a percentage of vehicle control levels.

[4] = Expt. 1, composition ratio (mol %) 50/9/38/3 for Cmpnd 49, 50/10/38.5/1.5 for the others
[5] = Expt. 8, composition ratio (mol %) 50/9/38/3 for Cmpnd 49, 50/10/38.5/1.5 for the others
[6] = Expt. 7, composition ratio (mol %) 50/9/38/3 for Cmpnd 49, 50/10/38.5/1.5 for the others
[7] = Expt. 2, composition ratio (mol %) 50/9/39.5/3 for Cmpnd 49, 50/9/39.5/1.5 for the others

CCCCCCCCCCCOC(=O)CCCCCCCC(=O)OCC(COC(=O)CCCCCCCC(=O)OCCCCCCCCCCC)OC(=O)CC(CCCCCCCC)OC(=O)NCCN(C)CC (centres unmarked) [Compound 59, O′1,O1-(2-((3-(((2-(ethyl(methyl)amino)ethyl)carbamoyl)oxy)undecanoyl)oxy)propane-1,3-diyl) 9,9′-diundecyl di(nonanedioate)]
pKa [1]: 6.34 | Num Ave Size (nm) [2, 4]: 88.36 nm | PDI [2, 4]: 0.03 | Z-Ave Size (nm) [2, 4]: 109.90 nm | Encapsulation (%) [3, 4]: 97% | Serum TTR % TSS (mouse TTR; dose 0.1 mpk): 80.70 % TSS

CCCCCCCCCCCOC(=O)CCCCCCCC(=O)OCC(COC(=O)CCCCCCCC(=O)OCCCCCCCCCCC)OC(=O)CCC(CCCCCCCC)OC(=O)NCCN(C)CC (centres unmarked) [Compound 60, O′1,O1-(2-((4-(((2-(ethyl(methyl)amino)ethyl)carbamoyl)oxy)dodecanoyl)oxy)propane-1,3-diyl) 9,9′-diundecyl di(nonanedioate)]
pKa [1]: 6.22 | Num Ave Size (nm) [2, 4]: 79.57 nm | PDI [2, 4]: 0.07 | Z-Ave Size (nm) [2, 4]: 103.40 nm | Encapsulation (%) [3, 4]: 97% | Serum TTR % TSS (mouse TTR; dose 0.1 mpk): 60.51 % TSS

CCCCCCCCCCCOC(=O)CCCCCCCC(=O)OCC(COC(=O)CCCCCCCC(=O)OCCCCCCCCCCC)OC(=O)CCCC(CCCCCCCC)OC(=O)NCCN(C)CC (centres unmarked) [Compound 61, O′1,O1-(2-((5-(((2-(ethyl(methyl)amino)ethyl)carbamoyl)oxy)tridecanoyl)oxy)propane-1,3-diyl) 9,9′-diundecyl di(nonanedioate)]
pKa [1]: 6.29 | Num Ave Size (nm) [2, 4]: 79.7 nm | PDI [2, 4]: 0.06 | Z-Ave Size (nm) [2, 4]: 102.00 nm | Encapsulation (%) [3, 4]: 97% | Serum TTR % TSS (mouse TTR; dose 0.1 mpk): 81.48 % TSS

CCCCC/C=C\C/C=C\CCCCCCCC(=O)OCC(COC(=O)CCCCCCCC(=O)OCCCCCCCCCCC)OC(=O)CC(CCCCCCCC)OC(=O)NCCN(C)CC (centres unmarked) [Compound 62, 1-(3-methyl-13-((((9Z,12Z)-octadeca-9,12-dienoyl)oxy)methyl)-9-octyl-7,11-dioxo-8,12-dioxa-3,6-diazatetradecan-14-yl) 9-undecyl nonanedioate]
pKa [1]: 6.32 | Num Ave Size (nm) [2, 4]: 87.26 nm | PDI [2, 4]: 0.04 | Z-Ave Size (nm) [2, 4]: 106.40 nm | Encapsulation (%) [3, 4]: 97% | Serum TTR % TSS (mouse TTR; dose 0.1 mpk): 57.89 % TSS

CCCCC/C=C\C/C=C\CCCCCCCC(=O)OCC(COC(=O)CCCCCCCC(=O)OCCCCCCCCCCC)OC(=O)CCC(CCCCCCCC)OC(=O)NCCN(C)CC (centres unmarked) [Compound 63, 1-(3-methyl-14-((((9Z,12Z)-octadeca-9,12-dienoyl)oxy)methyl)-9-octyl-7,12-dioxo-8,13-dioxa-3,6-diazapentadecan-15-yl) 9-undecyl nonanedioate]
pKa [1]: 6.32 | Num Ave Size (nm) [2, 4]: 82.18 nm | PDI [2, 4]: 0.04 | Z-Ave Size (nm) [2, 4]: 106.00 nm | Encapsulation (%) [3, 4]: 98% | Serum TTR % TSS (mouse TTR; dose 0.1 mpk): 83.86 % TSS

CCCCC/C=C\C/C=C\CCCCCCCC(=O)OCC(COC(=O)CCCCCCCC(=O)OCCCCCCCCCCC)OC(=O)CCCC(CCCCCCCC)OC(=O)NCCN(C)CC (centres unmarked) [Compound 64, 1-(3-methyl-15-((((9Z,12Z)-octadeca-9,12-dienoyl)oxy)methyl)-9-octyl-7,13-dioxo-8,14-dioxa-3,6-diazahexadecan-16-yl) 9-undecyl nonanedioate]
pKa [1]: 6.3 | Num Ave Size (nm) [2, 4]: 86.19 nm | PDI [2, 4]: 0.02 | Z-Ave Size (nm) [2, 4]: 106.40 nm | Encapsulation (%) [3, 4]: 97% | Serum TTR % TSS (mouse TTR; dose 0.1 mpk): 85.39 % TSS

CCCCC/C=C\C/C=C\CCCCCCCC(=O)OCC(COC(=O)CCCCCCC/C=C\C/C=C\CCCCC)OC(=O)CCC(CCCCCCCCCC)OC(=O)NCC1CCCN1C (centres unmarked) [Compound 65, 2-((4-((((1-methylpyrrolidin-2-yl)methyl)carbamoyl)oxy)tetradecanoyl)oxy)propane-1,3-diyl (9Z,9′Z,12Z,12′Z)-bis(octadeca-9,12-dienoate)]
pKa [1]: 6.37 | Num Ave Size (nm) [2, 5]: 52.04 nm | PDI [2, 5]: 0.056 | Z-Ave Size (nm) [2, 5]: 69.67 nm | Encapsulation (%) [3, 5]: 99% | Serum TTR % TSS (mouse TTR; dose 0.03 mpk): 119.84 % TSS | Serum TTR % TSS (mouse TTR; dose 0.1 mpk): 99.22 % TSS

CCCCC/C=C\C/C=C\CCCCCCCC(=O)OCC(COC(=O)CCCCCCC/C=C\C/C=C\CCCCC)OC(=O)CCC(CCCCCCCCCC)OC(=O)OCCCN1CCCC1 (centres unmarked) [Compound 66, 2-((4-(((3-(pyrrolidin-1-yl)propoxy)carbonyl)oxy)tetradecanoyl)oxy)propane-1,3-diyl (9Z,9′Z,12Z,12′Z)-bis(octadeca-9,12-dienoate)]
pKa [1]: 6.15 | Num Ave Size (nm) [2, 6]: 65.07 nm | PDI [2, 6]: 0.035 | Z-Ave Size (nm) [2, 6]: 79.79 nm | Encapsulation (%) [3, 6]: 98% | Serum TTR % TSS (mouse TTR; dose 0.03 mpk): 54.682 % TSS | Serum TTR % TSS (mouse TTR; dose 0.1 mpk): 19.674 % TSS

CCCCC/C=C\C/C=C\CCCCCCCC(=O)OCC(COC(=O)CCCCCCC/C=C\C/C=C\CCCCC)OC(=O)CCC(CCCC)OC(=O)NCC1CCCN1C (centres unmarked) [Compound 67, 2-((4-((((1-methylpyrrolidin-2-yl)methyl)carbamoyl)oxy)octanoyl)oxy)propane-1,3-diyl (9Z,9′Z,12Z,12′Z)-bis(octadeca-9,12-dienoate)]
pKa [1]: 6.43 | Num Ave Size (nm) [2, 7]: 82.14 nm | PDI [2, 7]: 0.043 | Z-Ave Size (nm) [2, 7]: 102.20 nm | Encapsulation (%) [3, 7]: 99% | Serum TTR % TSS (mouse TTR; dose 0.03 mpk): 65.41 % TSS
